In brackets after ≈: the same amount, converted by molar mass.
Legend:
Assay in all cases: ≥ marks a high value that may be exact or a test limit, other limits are often not marked, values filed in µg/mL are converted to µM
[1] = system: Staphylococcus aureus KCTC 1621
[2] = system: Staphylococcus aureus KCTC 3881
[3] = system: Salmonella typhimurium KCTC 1926
[4] = system: Staphylococcus aureus CCARM 3126
[5] = system: Staphylococcus aureus CCARM 3089
[6] = system: Acinetobacter baumannii CCARM 12035
[7] = system: Pseudomonas aeruginosa CCARM 2095
[8] = system: Pseudomonas aeruginosa CCARM 2163
[9] = system: Bacillus subtilis KCTC 1022
[10] = system: Staphylococcus aureus CCARM 3090
[11] = system: Bacillus subtilis KCTC 1021
[12] = system: Escherichia coli KCTC 2593
[13] = system: Staphylococcus aureus CCARM 3114
[14] = system: Acinetobacter baumannii CCARM 12037
[15] = system: Pseudomonas aeruginosa KCTC 2004
[16] = system: Salmonella typhimurium CCARM 8009
[17] = system: Pseudomonas aeruginosa KCTC 2513
[18] = system: Staphylococcus epidermidis KCTC 1917
[19] = system: Escherichia coli KCTC 1682
[20] = system: Salmonella typhimurium CCARM 8003
[21] = system: Escherichia coli CCARM 1238
[22] = system: Staphylococcus aureus CCARM 3108
[23] = system: Pseudomonas aeruginosa CCARM 2002
[24] = system: Bacillus subtilis KCTC 3068
[25] = system: Escherichia coli CCARM 1229
[26] = system: Acinetobacter baumannii CCARM 12005
[27] = system: Staphylococcus aureus KCTC 1916
[28] = system: Acinetobacter baumannii CCARM 12036
[29] = system: Pseudomonas aeruginosa CCARM 2003
[30] = system: Pseudomonas aeruginosa KCTC 1637
[31] = system: Escherichia coli KCTC 2571
[32] = system: Salmonella typhimurium CCARM 8007
[33] = system: Pseudomonas aeruginosa ATCC 27853
[34] = system: Escherichia coli ATCC 25922
[35] = system: Xanthomonas axonopodis pv. glycines ISBF 327
[36] = system: Enterococcus faecium ATCC 700221
[37] = system: Staphylococcus aureus ATCC 33591
[38] = system: Candida albicans ATCC 200955
[39] = system: Staphylococcus epidermidis ATCC 12228
[40] = system: Staphylococcus aureus ATCC 25923
[41] = system: Salmonella enterica subsp. enterica serovar Typhi DMST 22842

SMILES | MIC [1] [µM] | MIC [2] [µM] | MIC [3] [µM] | MIC [4] [µM] | MIC [5] [µM] | MIC [6] [µM] | MIC [7] [µM] | MIC [8] [µM] | MIC [9] [µM] | MIC [10] [µM] | MIC [11] [µM] | MIC [12] [µM] | MIC [13] [µM] | MIC [14] [µM] | MIC [15] [µM] | MIC [16] [µM] | MIC [17] [µM] | MIC [18] [µM] | MIC [33] [µM] | MIC [34] [µM] | other results
CC[C@H](C)[C@H](NC(=O)CNC(=O)[C@H](CCCN=C(N)N)NC(=O)[C@H](Cc1ccccc1)NC(=O)[C@@H](NC(=O)[C@H](Cc1cnc[nH]1)NC(=O)[C@H](Cc1cnc[nH]1)NC(=O)[C@H](C)NC(=O)[C@@H](N)Cc1ccccc1)[C@@H](C)CC)C(=O)N[C@H](C(=O)N[C@@H](Cc1cnc[nH]1)C(=O)N[C@H](C(=O)NCC(=O)N[C@@H](CCCCN)C(=O)N[C@H](C(=O)N[C@H](C(=O)N[C@@H](Cc1cnc[nH]1)C(=O)N[C@@H](CCCN=C(N)N)C(=O)N[C@@H](CC(C)C)C(=O)N[C@H](C(=O)N[C@H](C(=O)NCC(=O)O)[C@@H](C)O)C(C)C)[C@@H](C)CC)[C@@H](C)O)C(C)C)C(C)C [FAHHIFRGIVHVGKTIHRLVTG] | 4 (≈ 9.98 µg/mL) | 2 (≈ 4.99 µg/mL) | 16 (≈ 39.9 µg/mL) | 16 (≈ 39.9 µg/mL) | 16 (≈ 39.9 µg/mL) | 4 (≈ 9.98 µg/mL) | 4 (≈ 9.98 µg/mL) | 4 (≈ 9.98 µg/mL) | 1 (≈ 2.5 µg/mL) | 16 (≈ 39.9 µg/mL) | 8 (≈ 20 µg/mL) | 2 (≈ 4.99 µg/mL) | 16 (≈ 39.9 µg/mL) | 4 (≈ 9.98 µg/mL) | 8 (≈ 20 µg/mL) | 16 (≈ 39.9 µg/mL) | 8 (≈ 20 µg/mL) | 2 (≈ 4.99 µg/mL) | – | – | MIC [19]: 2 µM (≈ 4.99 µg/mL); MIC [20]: ≥ 32 µM; MIC [21]: 16 µM (≈ 39.9 µg/mL); MIC [22]: 16 µM (≈ 39.9 µg/mL); MIC [23]: 4 µM (≈ 9.98 µg/mL); MIC [24]: 4 µM (≈ 9.98 µg/mL); MIC [25]: 16 µM (≈ 39.9 µg/mL); MIC [26]: 4 µM (≈ 9.98 µg/mL); MIC [27]: 1 µM (≈ 2.5 µg/mL); MIC [28]: 4 µM (≈ 9.98 µg/mL); MIC [29]: 4 µM (≈ 9.98 µg/mL); MIC [30]: 4 µM (≈ 9.98 µg/mL); MIC [31]: 2 µM (≈ 4.99 µg/mL); MIC [32]: 16 µM (≈ 39.9 µg/mL)
CSCC[C@H](NC(=O)[C@H](Cc1ccccc1)NC(=O)CNC(=O)[C@H](Cc1ccccc1)NC(=O)[C@H](C)NC(=O)[C@H](CCCN=C(N)N)NC(=O)[C@H](CC(N)=O)NC(=O)[C@H](Cc1ccccc1)NC(=O)[C@H](CC(=O)O)NC(=O)[C@H](CCCCN)NC(=O)[C@H](Cc1ccccc1)NC(=O)[C@H](Cc1cnc[nH]1)NC(=O)[C@H](Cc1ccccc1)NC(=O)[C@H](CCC(N)=O)NC(=O)[C@H](CCCCN)NC(=O)[C@@H](N)Cc1ccccc1)C(=O)N[C@H](C(=O)N[C@@H](CCCN=C(N)N)C(=O)N[C@H](C(=O)N[C@@H](C)C(=O)N[C@@H](CC(C)C)C(=O)N[C@@H](CCC(N)=O)C(=O)N[C@@H](C)C(=O)N[C@@H](CCC(=O)O)C(=O)N[C@@H](CCCCN)C(=O)N[C@@H](CC(C)C)C(N)=O)C(C)C)[C@@H](C)O [FKQFHFKDFNRAFGFMTRVALQAEKL] | – | – | – | – | – | – | – | – | – | – | – | – | – | – | – | – | – | – | 80 (≈ 254 µg/mL) | 40 (≈ 127 µg/mL) | MIC [35]: ≥ 40 µM
CC[C@H](C)[C@H](NC(=O)[C@H](Cc1ccccc1)NC(=O)[C@H](CCCCN)NC(=O)[C@H](CC(C)C)NC(=O)[C@H](CC(C)C)NC(=O)CN)C(=O)N[C@@H](CCCCN)C(=O)N[C@@H](Cc1c[nH]c2ccccc12)C(=O)N[C@@H](CC(C)C)C(=O)N[C@@H](CC(C)C)C(N)=O [GLLKFIKWLL] | – | – | – | – | – | – | – | – | – | – | – | – | – | – | – | – | – | – | 256 (≈ 315 µg/mL) | 22.1 (≈ 27.2 µg/mL) | MIC [36]: 0.8 µM (≈ 0.984 µg/mL); MIC [37]: 7.4 µM (≈ 9.1 µg/mL); MIC [38]: ≥ 47.4 µM
CC(C)[C@H](NC(=O)CNC(=O)[C@@H](N)CC(N)=O)C(=O)N[C@@H](CCC(N)=O)C(=O)N1CCC[C@H]1C(=O)N[C@@H](CCCCN)C(=O)N[C@@H](Cc1ccc(O)cc1)C(=O)N[C@@H](CCCN=C(N)N)C(=O)N[C@@H](Cc1c[nH]c2ccccc12)C(=O)N[C@@H](Cc1c[nH]c2ccccc12)C(=O)N[C@@H](CCCN=C(N)N)C(=O)N[C@@H](Cc1c[nH]c2ccccc12)C(=O)N[C@@H](Cc1c[nH]c2ccccc12)C(=O)N[C@@H](CCCN=C(N)N)C(=O)N[C@@H](CCCN=C(N)N)C(=O)N[C@@H](Cc1c[nH]c2ccccc12)C(=O)N[C@@H](Cc1c[nH]c2ccccc12)C(=O)N[C@@H](Cc1c[nH]c2ccccc12)C(=O)N[C@@H](Cc1c[nH]c2ccccc12)C(N)=O [NGVQPKYRWWRWWRRWWWW] | – | – | – | – | – | – | – | – | – | – | – | – | – | – | – | – | – | – | > 31.2 | > 31.2 | MIC [39]: 31.2 µM (≈ 91 µg/mL); MIC [40]: > 31.2 µM; MIC [41]: 31.2 µM (≈ 91 µg/mL)

Further lines, with some results ahead:

MIC [1] [µM] | MIC [2] [µM] | MIC [3] [µM] | MIC [4] [µM] | MIC [5] [µM] | MIC [6] [µM] | MIC [7] [µM] | MIC [8] [µM] | MIC [9] [µM] | MIC [10] [µM] | MIC [11] [µM] | MIC [12] [µM] | MIC [13] [µM] | MIC [14] [µM] | MIC [15] [µM] | MIC [16] [µM] | MIC [17] [µM] | MIC [18] [µM] | MIC [33] [µM] | MIC [34] [µM] | SMILES | other results
2 (≈ 5.16 µg/mL) | 4 (≈ 10.3 µg/mL) | 2 (≈ 5.16 µg/mL) | 8 (≈ 20.7 µg/mL) | 8 (≈ 20.7 µg/mL) | 2 (≈ 5.16 µg/mL) | 2 (≈ 5.16 µg/mL) | 2 (≈ 5.16 µg/mL) | 4 (≈ 10.3 µg/mL) | 8 (≈ 20.7 µg/mL) | 8 (≈ 20.7 µg/mL) | 4 (≈ 10.3 µg/mL) | 8 (≈ 20.7 µg/mL) | 2 (≈ 5.16 µg/mL) | 8 (≈ 20.7 µg/mL) | 8 (≈ 20.7 µg/mL) | 8 (≈ 20.7 µg/mL) | 4 (≈ 10.3 µg/mL) | – | – | CC[C@H](C)[C@H](NC(=O)CNC(=O)[C@H](CCCN=C(N)N)NC(=O)[C@H](Cc1ccccc1)NC(=O)[C@@H](NC(=O)[C@H](Cc1cnc[nH]1)NC(=O)[C@H](Cc1cnc[nH]1)NC(=O)[C@H](CCCCN)NC(=O)[C@@H](N)Cc1ccccc1)[C@@H](C)CC)C(=O)N[C@@H](CCCCN)C(=O)N[C@@H](Cc1cnc[nH]1)C(=O)N[C@H](C(=O)NCC(=O)N[C@@H](CCCCN)C(=O)N[C@H](C(=O)N[C@H](C(=O)N[C@@H](Cc1cnc[nH]1)C(=O)N[C@@H](CCCN=C(N)N)C(=O)N[C@@H](CC(C)C)C(=O)N[C@H](C(=O)N[C@H](C(=O)NCC(=O)O)[C@@H](C)O)C(C)C)[C@@H](C)CC)[C@@H](C)O)C(C)C [FKHHIFRGIKHVGKTIHRLVTG] | MIC [19]: 1 µM (≈ 2.58 µg/mL); MIC [20]: 16 µM (≈ 41.3 µg/mL); MIC [21]: 8 µM (≈ 20.7 µg/mL); MIC [22]: 8 µM (≈ 20.7 µg/mL); MIC [23]: 2 µM (≈ 5.16 µg/mL); MIC [24]: 2 µM (≈ 5.16 µg/mL); MIC [25]: 8 µM (≈ 20.7 µg/mL); MIC [26]: 2 µM (≈ 5.16 µg/mL); MIC [27]: 4 µM (≈ 10.3 µg/mL); MIC [28]: 2 µM (≈ 5.16 µg/mL); MIC [29]: 2 µM (≈ 5.16 µg/mL); MIC [30]: 1 µM (≈ 2.58 µg/mL); MIC [31]: 4 µM (≈ 10.3 µg/mL); MIC [32]: 8 µM (≈ 20.7 µg/mL)
– | – | – | – | – | – | – | – | – | – | – | – | – | – | – | – | – | – | 28.4 (≈ 34.4 µg/mL) | 12.5 (≈ 15.1 µg/mL) | CC[C@H](C)[C@H](NC(=O)[C@H](CCCCN)NC(=O)[C@H](CCCCN)NC(=O)[C@H](CC(C)C)NC(=O)[C@H](CC(C)C)NC(=O)CN)C(=O)N[C@@H](CCCCN)C(=O)N[C@@H](Cc1c[nH]c2ccccc12)C(=O)N[C@@H](CC(C)C)C(=O)N[C@@H](CC(C)C)C(N)=O [GLLKKIKWLL] | MIC [36]: 22.1 µM (≈ 26.8 µg/mL); MIC [37]: 28.4 µM (≈ 34.4 µg/mL); MIC [38]: ≥ 47.4 µM

Source: DBAASP
